Source: ChEMBL document CHEMBL1201862, “PubChem BioAssay data set” (2004)
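Method: 48-hour compound exposure of cells in 96-well plates, five concentrations, linear interpolation of endpoints. GI50 is the concentration that inhibits growth by half.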 Calls of active or inactive are those of the source. No stated cut-off is given here; in the data, active = GI50 up to about 1.1 µM and inactive = higher.

Assays:
Assay in all cases: NCI tumour cell line growth inhibition, 48 h
[1] = tested on: SF-268
[2] = tested on: TK-10
[3] = tested on: SN12C
[4] = tested on: SF-295
[5] = tested on: SK-MEL-2
[6] = tested on: SK-OV-3
[7] = tested on: 786-0
[8] = tested on: UO-31
[9] = tested on: OVCAR-4
[10] = tested on: COLO 205
[11] = tested on: MDA-N
[12] = tested on: NCI-H460
[13] = tested on: SK-MEL-5
[14] = tested on: U-251
[15] = tested on: SK-MEL-28
[16] = tested on: OVCAR-5
[17] = tested on: T47D
[18] = tested on: SR
[19] = tested on: DU-145
[20] = tested on: Malme-3M
[21] = tested on: MOLT-4
[22] = tested on: ACHN
[23] = tested on: MDA-MB-435
[24] = tested on: MDA-MB-231
[25] = tested on: UACC-257
[26] = tested on: M14
[27] = tested on: HCT-15
[28] = tested on: UACC-62
[29] = tested on: HT-29
[30] = tested on: A549
[31] = tested on: HOP-62
[32] = tested on: K562
[33] = tested on: Hs-578T
[34] = tested on: HOP-92
[35] = tested on: IGROV-1
[36] = tested on: NCI/ADR-RES
[37] = tested on: RPMI-8226
[38] = tested on: LOX IMVI
[39] = tested on: EKVX
[40] = tested on: KM12
[41] = tested on: PC-3
[42] = tested on: OVCAR-3
[43] = tested on: SW-620
[44] = tested on: SNB-19
[45] = tested on: NCI-H522
[46] = tested on: CAKI-1
[47] = tested on: NCI-H23
[48] = tested on: NCI-H226
[49] = tested on: HCC 2998
[50] = tested on: SF-539
[51] = tested on: HCT-116
[52] = tested on: MCF7
[53] = tested on: SNB-75
[54] = tested on: BT-549
[55] = tested on: CCRF-CEM
[56] = tested on: OVCAR-8
[57] = tested on: RXF 393
[58] = tested on: A498
[59] = tested on: HL-60

CCCCCCCCCCCCCCCCCCNc1ccn(C2OC(COP(=O)(O)OCC3OC(n4cc(C)c(=O)[nH]c4=O)CC3N=[N+]=[N-])C(O)C2O)c(=O)n1 (stereo unspecified)
GI50 [1]: 19.2 µM (inactive) | GI50 [2]: 16.8 µM (inactive) | GI50 [3]: 21.7 µM (inactive) | GI50 [4]: 18.3 µM (inactive) | GI50 [5]: 22.8 µM (inactive) | GI50 [6]: 18.9 µM (inactive) | GI50 [7]: 29.5 µM (inactive) | GI50 [8]: 21 µM (inactive) | GI50 [9]: 25.7 µM (inactive) | GI50 [10]: 14.5 µM (inactive) | GI50 [11]: 43.7 µM (inactive) | GI50 [12]: 21 µM (inactive) | GI50 [13]: 22.8 µM (inactive) | GI50 [14]: 16.7 µM (inactive) | GI50 [15]: 18.6 µM (inactive) | GI50 [16]: 16.7 µM (inactive) | GI50 [17]: 34.8 µM (inactive) | GI50 [18]: 18.4 µM (inactive) | GI50 [19]: 95.5 µM (inactive) | GI50 [20]: 16.9 µM (inactive) | GI50 [21]: 16.4 µM (inactive) | GI50 [22]: 54 µM (inactive) | GI50 [23]: 23.8 µM (inactive) | GI50 [24]: 22.1 µM (inactive) | GI50 [25]: 25.4 µM (inactive) | GI50 [26]: 20.2 µM (inactive) | GI50 [27]: 18.8 µM | GI50 [28]: 19.1 µM (inactive) | GI50 [29]: 19.2 µM (inactive) | GI50 [30]: 52 µM (inactive) | GI50 [31]: 23.2 µM (inactive) | GI50 [32]: 18.7 µM (inactive) | GI50 [33]: 23 µM (inactive) | GI50 [34]: 59.6 µM (inactive) | GI50 [35]: 19.1 µM (inactive) | GI50 [36]: 21 µM (inactive) | GI50 [37]: 11.8 µM (inactive) | GI50 [38]: 16.4 µM (inactive) | GI50 [39]: 26.3 µM (inactive) | GI50 [40]: 20.3 µM (inactive) | GI50 [41]: 8.81 µM (inactive) | GI50 [42]: 36.9 µM (inactive) | GI50 [43]: 22.5 µM (inactive) | GI50 [44]: 19.2 µM (inactive) | GI50 [45]: 13.3 µM (inactive) | GI50 [46]: 22.4 µM (inactive) | GI50 [47]: 19.5 µM (inactive) | GI50 [48]: 22.8 µM (inactive) | GI50 [49]: 15.1 µM (inactive) | GI50 [50]: 17.8 µM (inactive) | GI50 [51]: 39.7 µM (inactive) | GI50 [52]: 37 µM (inactive) | GI50 [53]: 25.8 µM (inactive) | GI50 [54]: 19.7 µM (inactive) | GI50 [55]: 15.5 µM (inactive) | GI50 [56]: 21.8 µM (inactive)

CCOC(=O)c1cc(=O)oc2c1N(C)c1ncccc1N2
GI50 [1]: > 100 µM (inactive) | GI50 [2]: > 100 µM (inactive) | GI50 [3]: > 100 µM (inactive) | GI50 [4]: > 100 µM (inactive) | GI50 [5]: > 100 µM (inactive) | GI50 [6]: > 100 µM (inactive) | GI50 [7]: > 100 µM (inactive) | GI50 [8]: 50.9 µM (inactive) | GI50 [9]: > 100 µM (inactive) | GI50 [10]: > 100 µM (inactive) | GI50 [11]: > 100 µM (inactive) | GI50 [12]: > 100 µM (inactive) | GI50 [14]: > 100 µM (inactive) | GI50 [15]: > 100 µM (inactive) | GI50 [16]: > 100 µM (inactive) | GI50 [57]: > 100 µM (inactive) | GI50 [17]: > 100 µM (inactive) | GI50 [18]: 63.4 µM (inactive) | GI50 [19]: > 100 µM (inactive) | GI50 [21]: > 100 µM (inactive) | GI50 [22]: 86.9 µM (inactive) | GI50 [23]: > 100 µM (inactive) | GI50 [24]: 69.5 µM (inactive) | GI50 [25]: > 100 µM (inactive) | GI50 [26]: > 100 µM (inactive) | GI50 [27]: > 100 µM | GI50 [28]: > 100 µM (inactive) | GI50 [30]: > 100 µM (inactive) | GI50 [31]: > 100 µM (inactive) | GI50 [32]: > 100 µM (inactive) | GI50 [33]: > 100 µM (inactive) | GI50 [36]: > 100 µM (inactive) | GI50 [37]: > 100 µM (inactive) | GI50 [38]: > 100 µM (inactive) | GI50 [40]: > 100 µM (inactive) | GI50 [41]: > 100 µM (inactive) | GI50 [58]: > 100 µM (inactive) | GI50 [42]: > 100 µM (inactive) | GI50 [43]: > 100 µM (inactive) | GI50 [44]: > 100 µM (inactive) | GI50 [46]: > 100 µM (inactive) | GI50 [47]: > 100 µM (inactive) | GI50 [48]: > 100 µM (inactive) | GI50 [49]: > 100 µM (inactive) | GI50 [51]: > 100 µM (inactive) | GI50 [52]: > 100 µM (inactive) | GI50 [53]: > 100 µM (inactive) | GI50 [54]: > 100 µM (inactive) | GI50 [56]: > 100 µM (inactive)

C=CS(=O)(=O)CCN1CC1
GI50 [1]: > 10 µM (inactive) | GI50 [2]: > 10 µM (inactive) | GI50 [3]: > 10 µM (inactive) | GI50 [4]: > 10 µM (inactive) | GI50 [6]: > 10 µM (inactive) | GI50 [7]: > 10 µM (inactive) | GI50 [9]: > 10 µM (inactive) | GI50 [10]: > 10 µM (inactive) | GI50 [11]: > 10 µM (inactive) | GI50 [13]: > 10 µM (inactive) | GI50 [14]: > 10 µM (inactive) | GI50 [15]: > 10 µM (inactive) | GI50 [16]: > 10 µM (inactive) | GI50 [17]: > 10 µM (inactive) | GI50 [18]: > 10 µM (inactive) | GI50 [19]: > 10 µM (inactive) | GI50 [20]: > 10 µM (inactive) | GI50 [21]: > 10 µM (inactive) | GI50 [22]: > 10 µM (inactive) | GI50 [23]: > 10 µM (inactive) | GI50 [24]: > 10 µM (inactive) | GI50 [25]: > 10 µM (inactive) | GI50 [26]: > 10 µM (inactive) | GI50 [27]: > 10 µM | GI50 [28]: > 10 µM (inactive) | GI50 [29]: > 10 µM (inactive) | GI50 [30]: > 10 µM (inactive) | GI50 [31]: > 10 µM (inactive) | GI50 [32]: > 10 µM (inactive) | GI50 [33]: > 10 µM (inactive) | GI50 [34]: > 10 µM (inactive) | GI50 [35]: > 10 µM (inactive) | GI50 [36]: > 10 µM (inactive) | GI50 [37]: > 10 µM (inactive) | GI50 [38]: > 10 µM (inactive) | GI50 [40]: > 10 µM (inactive) | GI50 [41]: > 10 µM (inactive) | GI50 [42]: > 10 µM (inactive) | GI50 [43]: > 10 µM (inactive) | GI50 [59]: > 10 µM (inactive) | GI50 [45]: > 10 µM (inactive) | GI50 [46]: > 10 µM (inactive) | GI50 [47]: > 10 µM (inactive) | GI50 [49]: > 10 µM (inactive) | GI50 [50]: > 10 µM (inactive) | GI50 [51]: > 10 µM (inactive) | GI50 [52]: > 10 µM (inactive) | GI50 [53]: > 10 µM (inactive) | GI50 [54]: > 10 µM (inactive) | GI50 [55]: > 10 µM (inactive) | GI50 [56]: > 10 µM (inactive)
